{
  "source": "patent US10202361B2",
  "about": "“Pyridazinones as herbicides” (E I DU PONT DE NEMOURS AND COMPANY, priority 2014, dated 2019)",
  "type_in_all_cases": "in vivo",
  "key": {"[1]": {"test_system": "barnyardgrass (Echinochloa crus-galli)", "assay": "Test A pre-/postemergence greenhouse herbicide test", "details": "Echinochloa crus-galli, 240 h, 0 to 100 scale (0 no effect, 100 complete control), approx. 10 d, read-out: Plant response rating, Barnyardgrass; for pest or weed control at 125 g/ha: 125 g ai/ha; for pest or weed control at 500 g/ha: 500 g ai/ha", "method_in_brief": "(§1)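 Injury was scored visually on a 0 to 100 scale, where 0 meant no effect and 100 complete control, relative to untreated plants after about 10 d in the greenhouse. Preemergence treatment was a directed soil spray on seeded loam–sand; postemergence spray went onto one- to two-leaf plants.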"}, "corn (Zea mays)": {"test_system": "corn (Zea mays)", "assay": "Test A pre-/postemergence greenhouse herbicide test", "details": "Zea mays, 240 h, 0 to 100 scale (0 no effect, 100 complete control), approx. 10 d; for Corn plant response rating (crop injury, 0 = no effect, 100 = complete kill) at 125 g/ha: 125 g ai/ha; for Corn plant response rating (crop injury, 0 = no effect, 100 = complete kill) at 500 g/ha: 500 g ai/ha", "method_in_brief": "as §1"}, "[2]": {"test_system": "crabgrass, Large (large crabgrass, Digitaria sanguinalis)", "assay": "Test A pre-/postemergence greenhouse herbicide test", "details": "Digitaria sanguinalis, 240 h, 0 to 100 scale (0 no effect, 100 complete control), approx. 10 d, read-out: Plant response rating, Crabgrass, Large; for pest or weed control at 125 g/ha: 125 g ai/ha; for pest or weed control at 500 g/ha: 500 g ai/ha", "method_in_brief": "as §1"}, "[3]": {"test_system": "foxtail, giant (giant foxtail, Setaria faberii)", "assay": "Test A pre-/postemergence greenhouse herbicide test", "details": "Setaria faberi, 240 h, 0 to 100 scale (0 no effect, 100 complete control), approx. 10 d, read-out: Plant response rating, Foxtail, Giant; for pest or weed control at 125 g/ha: 125 g ai/ha; for pest or weed control at 500 g/ha: 500 g ai/ha", "method_in_brief": "as §1"}, "[4]": {"test_system": "morningglory (Ipomoea spp.)", "assay": "Test A pre-/postemergence greenhouse herbicide test", "details": "Ipomoea, 240 h, 0 to 100 scale (0 no effect, 100 complete control), approx. 10 d, read-out: Plant response rating, Morningglory; for pest or weed control at 125 g/ha: 125 g ai/ha; for pest or weed control at 500 g/ha: 500 g ai/ha", "method_in_brief": "as §1"}, "[5]": {"test_system": "pigweed (Amaranthus retroflexus)", "assay": "Test A pre-/postemergence greenhouse herbicide test", "details": "Amaranthus retroflexus, 240 h, 0 to 100 scale (0 no effect, 100 complete control), approx. 10 d, read-out: Plant response rating, Pigweed; for pest or weed control at 125 g/ha: 125 g ai/ha; for pest or weed control at 500 g/ha: 500 g ai/ha", "method_in_brief": "as §1"}, "[6]": {"test_system": "velvetleaf (Abutilon theophrasti)", "assay": "Test A pre-/postemergence greenhouse herbicide test", "details": "Abutilon theophrasti, 240 h, 0 to 100 scale (0 no effect, 100 complete control), approx. 10 d, read-out: Plant response rating, Velvetleaf; for pest or weed control at 125 g/ha: 125 g ai/ha; for pest or weed control at 500 g/ha: 500 g ai/ha", "method_in_brief": "as §1"}, "[7]": {"test_system": "wheat (Triticum aestivum)", "assay": "Test A pre-/postemergence greenhouse herbicide test", "details": "Triticum aestivum, 240 h, 0 to 100 scale (0 no effect, 100 complete control), approx. 10 d, read-out: Plant response rating, Wheat; for plant injury at 125 g/ha: 125 g ai/ha; for plant injury at 500 g/ha: 500 g ai/ha", "method_in_brief": "as §1"}, "[8]": {"test_system": "barnyardgrass (Echinochloa crus-galli)", "assay": "Test C pre-/postemergence greenhouse herbicide test", "details": "Preemergence; for Plant response rating: Barnyardgrass; for Plant response rating, Barnyardgrass: visual rating on scale 0 (no effect) to 100 (complete control), 13 to 15 d", "text": "Seeds of plant species selected from blackgrass (Alopecurus myosuroides), bromegrass, downy (downy bromegrass, Bromus tectorum), foxtail, green (green foxtail, Setaria viridis), ryegrass, Italian (Italian ryegrass, Lolium multiflorum), wheat (winter wheat, Triticum aestivum), oat, wild (wild oat, Avena fatua), galium (catchweed bedstraw, Galium aparine), bermudagrass (Cynodon dactylon), surinam grass (Brachiaria decumbens), cocklebur (common cocklebur, Xanthium strumarium), corn (Zea mays), crabgrass, large (large crabgrass, Digitaria sanguinalis), cupgrass, woolly (woolly cupgrass, Eriochloa villosa), foxtail, giant (giant foxtail, Setaria faberii), goosegrass (Eleusine indica), johnsongrass (Sorghum halepense), kochia (Kochia scoparia), lambsquarters (Chenopodium album), morningglory (Ipomoea coccinea), nightshade (eastern black nightshade, Solanum ptycanthum), nutsedge, yellow (yellow nutsedge, Cyperus esculentus), pigweed (Amaranthus retroflexus), ragweed (common ragweed, Ambrosia elatior), soybean (Glycine max), sunflower (common oilseed sunflower, Helianthus annuus), Russian thistle (Salsola kali), barnyardgrass (Echinochloa crus-galli), oilseed rape (Brassica napus), waterhemp (common waterhemp, Amaranthus rudis), and velvetleaf (Abutilon theophrasti) were planted into a blend of loam soil and sand and treated preemergence with test chemicals formulated in a non-phytotoxic solvent mixture which included a surfactant.\nAt the same time, plants selected from these crop and weed species and also barley (winter barley, Hordeum vulgare), canarygrass (Phalaris minor), windgrass (Apera spica-venti), deadnettle (henbit deadnettle, Lamium amplexicaule), and chickweed (common chickweed, Stellaria media) were planted in pots containing Redi-Earth® planting medium (Scotts Company, 14111 Scottslawn Road, Marysville, Ohio 43041) comprising spaghnum peat moss, vermiculite, wetting agent and starter nutrients and treated with postemergence applications of test chemicals formulated in the same manner. Plants ranged in height from 2 to 18 cm (1- to 4-leaf stage) for postemergence treatments. Treated plants and controls were maintained in a greenhouse for 13 to 15 d, after which time all species were compared to controls and visually evaluated. Plant response ratings, summarized in Table C, are based on a scale of 0 to 100 where 0 is no effect and 100 is complete control. A dash (-) response means no test result."}},
  "note": "Like-named read-outs stand apart in the source and are kept apart here.",
  "data": [
    {"molecule": "CCOc1cc(=O)n(-c2ccc(F)cc2)nc1C(O)c1ccnc(C(F)(F)F)c1", "note": "(stereo not drawn) [Compound 23, 5-ethoxy-2-(4-fluorophenyl)-6-[hydroxy[2-(trifluoromethyl)-4-pyridinyl]methyl]-3(2H)-pyridazinone]", "values": [
      {"measurement": "pest or weed control at 125 g/ha", "setting": "[1]; post-emergence, Postemergence", "value": 20, "unit": "%"},
      {"measurement": "pest or weed control at 500 g/ha", "setting": "[1]; post-emergence, Postemergence", "value": 100, "unit": "%"},
      {"measurement": "pest or weed control at 125 g/ha", "setting": "[1]; pre-emergence, Preemergence", "value": 20, "unit": "%"},
      {"measurement": "pest or weed control at 500 g/ha", "setting": "[1]; pre-emergence, Preemergence", "value": 100, "unit": "%"},
      {"measurement": "Corn plant response rating (crop injury, 0 = no effect, 100 = complete kill) at 125 g/ha", "setting": "corn (Zea mays); post-emergence, Postemergence", "value": 50, "unit": "%"},
      {"measurement": "Corn plant response rating (crop injury, 0 = no effect, 100 = complete kill) at 500 g/ha", "setting": "corn (Zea mays); post-emergence, Postemergence", "value": 90, "unit": "%"},
      {"measurement": "Corn plant response rating (crop injury, 0 = no effect, 100 = complete kill) at 125 g/ha", "setting": "corn (Zea mays); pre-emergence, Preemergence", "value": 0, "unit": "%"},
      {"measurement": "Corn plant response rating (crop injury, 0 = no effect, 100 = complete kill) at 500 g/ha", "setting": "corn (Zea mays); pre-emergence, Preemergence", "value": 20, "unit": "%"},
      {"measurement": "pest or weed control at 125 g/ha", "setting": "[2]; post-emergence, Postemergence", "value": 60, "unit": "%"},
      {"measurement": "pest or weed control at 500 g/ha", "setting": "[2]; post-emergence, Postemergence", "value": 100, "unit": "%"},
      {"measurement": "pest or weed control at 125 g/ha", "setting": "[2]; pre-emergence, Preemergence", "value": 100, "unit": "%"},
      {"measurement": "pest or weed control at 500 g/ha", "setting": "[2]; pre-emergence, Preemergence", "value": 100, "unit": "%"},
      {"measurement": "pest or weed control at 125 g/ha", "setting": "[3]; post-emergence, Postemergence", "value": 50, "unit": "%"},
      {"measurement": "pest or weed control at 500 g/ha", "setting": "[3]; post-emergence, Postemergence", "value": 90, "unit": "%"},
      {"measurement": "pest or weed control at 125 g/ha", "setting": "[3]; pre-emergence, Preemergence", "value": 100, "unit": "%"},
      {"measurement": "pest or weed control at 500 g/ha", "setting": "[3]; pre-emergence, Preemergence", "value": 100, "unit": "%"},
      {"measurement": "pest or weed control at 125 g/ha", "setting": "[4]; post-emergence, Postemergence", "value": 20, "unit": "%"},
      {"measurement": "pest or weed control at 500 g/ha", "setting": "[4]; post-emergence, Postemergence", "value": 60, "unit": "%"},
      {"measurement": "pest or weed control at 125 g/ha", "setting": "[4]; pre-emergence, Preemergence", "value": 100, "unit": "%"},
      {"measurement": "pest or weed control at 500 g/ha", "setting": "[4]; pre-emergence, Preemergence", "value": 100, "unit": "%"},
      {"measurement": "pest or weed control at 125 g/ha", "setting": "[5]; post-emergence, Postemergence", "value": 100, "unit": "%"},
      {"measurement": "pest or weed control at 500 g/ha", "setting": "[5]; post-emergence, Postemergence", "value": 100, "unit": "%"},
      {"measurement": "pest or weed control at 125 g/ha", "setting": "[5]; pre-emergence, Preemergence", "value": 100, "unit": "%"},
      {"measurement": "pest or weed control at 500 g/ha", "setting": "[5]; pre-emergence, Preemergence", "value": 100, "unit": "%"},
      {"measurement": "pest or weed control at 125 g/ha", "setting": "[6]; post-emergence, Postemergence", "value": 20, "unit": "%"},
      {"measurement": "pest or weed control at 500 g/ha", "setting": "[6]; post-emergence, Postemergence", "value": 70, "unit": "%"},
      {"measurement": "pest or weed control at 125 g/ha", "setting": "[6]; pre-emergence, Preemergence", "value": 80, "unit": "%"},
      {"measurement": "pest or weed control at 500 g/ha", "setting": "[6]; pre-emergence, Preemergence", "value": 100, "unit": "%"},
      {"measurement": "plant injury at 125 g/ha", "setting": "[7]; post-emergence, Postemergence", "value": 80, "unit": "%"},
      {"measurement": "plant injury at 500 g/ha", "setting": "[7]; post-emergence, Postemergence", "value": 90, "unit": "%"},
      {"measurement": "plant injury at 125 g/ha", "setting": "[7]; pre-emergence, Preemergence", "value": 0, "unit": "%"},
      {"measurement": "plant injury at 500 g/ha", "setting": "[7]; pre-emergence, Preemergence", "value": 90, "unit": "%"},
      {"measurement": "Plant response rating", "setting": "[8]; 31 g ai/ha", "value": 25},
      {"measurement": "Plant response rating", "setting": "[8]; 62 g ai/ha", "value": 25},
      {"measurement": "Plant response rating, Barnyardgrass", "setting": "[8]; 8 g ai/ha", "value": 0},
      {"measurement": "Plant response rating, Barnyardgrass", "setting": "[8]; 16 g ai/ha", "value": 0}
    ]}
  ]
}
